Source: patent US20060234942A1, “Use of at least one $g(a)62 casein peptide with angiotensin i converting enzyme inhibiting activity for preparing medicines, food products and food complements” (priority 2002, published 2006)
Values joined by “and” are separate entries in the source; they are usually repeats but may differ in a detail not shown here. Equal entries are not always repeated. Residues, ends and D or L forms follow the SMILES beside them.

Key:
[1] = molecular target: angiotensin I converting enzyme (ACE) (Homo sapiens, UniProt P12821); assay: biochemical; settings: for IC50: IC50 (μM), synthetic peptides, tested in triplicate, deduced from linearized inhibition curve; for inhibition at 50 µM: primary amine or captopril concentration equal to 50 μM, chromatographic peaks collected from trypsic hydrolysate of αS2 casein, tested twice
bacteria = settings: Zucht et al. (10); Recio and Visser (11); cited from earlier work
[2] = test system: spontaneously hypertensive rats; settings: 6 hours after oral administration of 1 mg synthesized peptide per kg, Maeno et al. (13); cited from earlier work
[3] = molecular target: angiotensin I converting enzyme (Homo sapiens, UniProt P12821); settings: Maeno et al. (13); read-out: IC50, quantity of peptide needed for inhibiting 50% of the enzyme activity; cited from earlier work
Sequence of angiotensin I converting enzyme (P12821 30-1306): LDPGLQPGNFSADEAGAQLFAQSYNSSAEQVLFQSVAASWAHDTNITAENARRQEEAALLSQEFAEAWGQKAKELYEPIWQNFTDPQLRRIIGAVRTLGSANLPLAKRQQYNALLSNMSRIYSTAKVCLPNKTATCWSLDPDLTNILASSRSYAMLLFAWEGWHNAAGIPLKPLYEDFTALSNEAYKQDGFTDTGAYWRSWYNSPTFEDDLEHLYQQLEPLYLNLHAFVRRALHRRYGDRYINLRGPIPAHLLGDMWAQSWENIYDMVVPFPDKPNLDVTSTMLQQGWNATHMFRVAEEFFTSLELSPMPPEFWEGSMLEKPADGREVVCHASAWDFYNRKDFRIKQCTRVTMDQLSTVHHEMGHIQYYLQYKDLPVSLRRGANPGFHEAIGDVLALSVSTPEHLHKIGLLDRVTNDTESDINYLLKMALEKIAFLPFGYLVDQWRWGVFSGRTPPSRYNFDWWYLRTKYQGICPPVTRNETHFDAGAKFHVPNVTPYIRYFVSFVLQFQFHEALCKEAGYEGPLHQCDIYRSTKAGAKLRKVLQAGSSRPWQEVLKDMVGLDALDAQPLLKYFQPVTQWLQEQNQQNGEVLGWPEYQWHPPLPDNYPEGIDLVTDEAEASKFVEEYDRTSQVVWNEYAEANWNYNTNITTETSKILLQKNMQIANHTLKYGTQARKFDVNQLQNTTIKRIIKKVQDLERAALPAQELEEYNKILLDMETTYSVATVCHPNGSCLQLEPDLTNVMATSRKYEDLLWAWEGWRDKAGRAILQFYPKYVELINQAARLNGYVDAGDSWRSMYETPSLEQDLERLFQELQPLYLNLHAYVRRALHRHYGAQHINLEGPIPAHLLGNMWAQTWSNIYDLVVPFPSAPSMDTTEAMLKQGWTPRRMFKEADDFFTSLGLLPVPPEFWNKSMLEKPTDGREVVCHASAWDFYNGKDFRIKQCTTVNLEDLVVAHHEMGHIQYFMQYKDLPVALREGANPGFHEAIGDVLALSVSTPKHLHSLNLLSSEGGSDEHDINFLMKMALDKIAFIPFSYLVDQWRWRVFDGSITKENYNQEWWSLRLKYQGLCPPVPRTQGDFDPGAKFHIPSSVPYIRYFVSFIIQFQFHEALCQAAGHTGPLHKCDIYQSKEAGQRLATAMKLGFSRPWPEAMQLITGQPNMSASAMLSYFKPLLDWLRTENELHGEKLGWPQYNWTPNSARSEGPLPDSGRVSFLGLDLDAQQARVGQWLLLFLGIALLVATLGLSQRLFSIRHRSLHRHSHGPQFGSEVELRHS

Sequence of angiotensin I converting enzyme (ACE) (P12821 30-1306, species assumed): as the sequence (P12821 30-1306) above

| Compound | IC50 [1] | inhibition at 50 µM [1] [%] | other results |
| --- | --- | --- | --- |
| CC[C@H](C)[C@H](NC(=O)[C@H](C)NC(=O)[C@H](CCSC)NC(=O)[C@@H](N)CC(N)=O)C(=O)N[C@@H](CC(N)=O)C(=O)N1CCC[C@H]1C(=O)O [CNαS2-(f25-30), Asn-Met-Ala-Ile-Asn-Pro] (H-NMAINP-OH) | < 60 µM |  |  |
| CC[C@H](C)[C@H](NC(=O)[C@H](C)NC(=O)[C@H](CCSC)NC(=O)[C@@H](N)CC(N)=O)C(=O)N[C@@H](CC(N)=O)C(=O)N1CCC[C@H]1C(=O)N[C@@H](CO)C(=O)N[C@@H](CCCCN)C(=O)O [CNαS2-(f25-32)] (H-NMAINPSK-OH; N-terminus and C-terminus assumed) | < 60 µM | 42.5 |  |
| CC[C@H](C)[C@H](NC(=O)[C@H](CCC(=O)O)NC(=O)[C@H](CC(N)=O)NC(=O)[C@H](CC(C)C)NC(=O)[C@H](C)N)C(=O)N[C@@H](CC(N)=O)C(=O)N[C@@H](CCC(N)=O)C(=O)N[C@@H](Cc1ccccc1)C(=O)N[C@@H](Cc1ccc(O)cc1)C(=O)O [CNαS2-(f81-89)] (H-ALNEINQFY-OH; N-terminus and C-terminus assumed) |  | 32.2 |  |
| CC[C@H](C)[C@H](NC(=O)[C@H](CCC(=O)O)NC(=O)[C@H](CC(N)=O)NC(=O)[C@H](CC(C)C)NC(=O)[C@H](C)N)C(=O)N[C@@H](CC(N)=O)C(=O)N[C@@H](CCC(N)=O)C(=O)N[C@@H](Cc1ccccc1)C(=O)N[C@@H](Cc1ccc(O)cc1)C(=O)N[C@@H](CCC(N)=O)C(=O)N[C@@H](CCCCN)C(=O)O [CNαS2-(f81-91)] (H-ALNEINQFYQK-OH; N-terminus and C-terminus assumed) |  | 27.2 |  |
| CC(C)C[C@H](NC(=O)[C@H](Cc1ccc(O)cc1)NC(=O)[C@H](CCC(N)=O)NC(=O)[C@@H]1CCCN1C(=O)[C@@H](N)Cc1ccccc1)C(=O)N[C@@H](CCC(N)=O)C(=O)N[C@@H](Cc1ccc(O)cc1)C(=O)O [CNαS2-(f92-98), Phe-Pro-Gln-Tyr-Leu-Gln-Tyr] (H-FPQYLQY-OH; N-terminus and C-terminus assumed) | < 60 µM | > 70 |  |
| CC(C)C[C@H](NC(=O)[C@H](C)NC(=O)[C@@H](N)Cc1ccccc1)C(=O)N1CCC[C@H]1C(=O)O [CNαS2-(f174-177), Phe-Ala-Leu-Pro] (H-FALP-OH) | < 60 µM |  |  |
| CC(C)C[C@H](NC(=O)[C@H](C)NC(=O)[C@@H](N)Cc1ccccc1)C(=O)N1CCC[C@H]1C(=O)N[C@@H](CCC(N)=O)C(=O)N[C@@H](Cc1ccc(O)cc1)C(=O)O [CNαS2-(f174-179), Phe-Ala-Leu-Pro-Gln-Tyr] (H-FALPQY-OH; N-terminus and C-terminus assumed) | < 60 µM and 4.3 µM | > 70 |  |
| CC(C)C[C@H](NC(=O)[C@H](Cc1ccc(O)cc1)NC(=O)[C@H](CCC(N)=O)NC(=O)[C@@H]1CCCN1C(=O)[C@H](CC(C)C)NC(=O)[C@H](C)NC(=O)[C@@H](N)Cc1ccccc1)C(=O)N[C@@H](CCCCN)C(=O)O [CNαS2-(f174-181)] (H-FALPQYLK-OH; N-terminus and C-terminus assumed) | < 60 µM and 4.3 µM | > 70 |  |
| CC(C)[C@H](NC(=O)[C@@H](N)[C@@H](C)O)C(=O)N[C@@H](Cc1ccc(O)cc1)C(=O)O [CNαS2-(f182-184), Thr-Val-Tyr] (H-Thr-Val-Tyr-OH; N-terminus and C-terminus assumed) | < 60 µM | > 70 |  |
| CNαS2-(f164-179): αS2 casein peptide with antibacterial activity, Recio and Visser (11) (LKKISQRYQKFALPQY; UniProt P02663 179-194, looked up, fragment) |  |  | antibacterial activity (bacteria): antibacterial activity |
| CNαS2-(f165-203): αS2 casein peptide with antibacterial activity, Zucht et al. (10) (KKISQRYQKFALPQYLKTVYQHQKAMKPWIQPKTKVIPY; UniProt P02663 180-218, looked up, fragment) |  |  | antibacterial activity (bacteria): antibacterial activity |
| CNαS2-(f189-193): αS2 casein peptide 189-193, ACE inhibitor reported by Maeno et al. (13) (AMKPW; UniProt P02663 204-208, looked up, fragment) |  |  | antihypertensive effect in vivo [2]: do not present any significant antihypertensive effect; IC50 [3]: 580 µM |
| CNαS2-(f190-197): αS2 casein peptide 190-197, ACE inhibitor reported by Maeno et al. (13) (MKPWIQPK; UniProt P02663 205-212, looked up, fragment) |  |  | antihypertensive effect in vivo [2]: do not present any significant antihypertensive effect; IC50 [3]: 300 µM |
| CNαS2-(f198-202): αS2 casein peptide 198-202, ACE inhibitor reported by Maeno et al. (13) (TKVIP; UniProt P02663 213-217, looked up, fragment) |  |  | antihypertensive effect in vivo [2]: do not present any significant antihypertensive effect; IC50 [3]: 400 µM |
